Experimental data from patent publication US20240197869A1, “HYPERACTIVATORS OF MAMMALIAN DENDRITIC CELLS” (Corner Therapeutics, Inc., priority 2021, published 2024).

What was measured:
[1] = tested on: human monocyte-derived dendritic cells (moDCs); test: DAMP screen: IL-1β secretion by LPS-activated human moDCs (ELISA); format: cell-based
Experimental: Danger-Associated Molecular Pattern (DAMP) Screen.
(§1) Quantification of IL-1beta Secretion. IL-1beta secretion was assessed using the ELISA MAX Deluxe Set Human IL-1beta kit (Biolegend). ELISAs were performed according to manufacturer's instructions with the following modifications: i) total sample volume for incubation was reduced from […] the top standard was prepared at […], with two-fold dilutions to […]; and iii) sample incubation was completed overnight at 4 C on an orbital shaker. […] To determine IL-1beta concentration in supernatants, sample IL-1beta concentrations were interpolated using a standard curve via 4PL analysis on GraphPad Prism 9 (GraphPad Software). The interpolated results of samples were then adjusted for any dilutions made to the supernatant.

[2] = tested on: human monocyte-derived dendritic cells (moDCs); test: Lipid titration: IL-1β secretion by LPS-activated human moDCs; format: cell-based; conditions: for Activity Units (AU) ± SD (lipid activity index): reciprocal of lowest concentration giving IL-1β two-fold over LPS x highest IL-1β signal, lipid 1.3-82.5 μM + LPS
Experimental: as §1

[3] = tested on: human memory CD4+ T cells; test: Human moDC coculture with memory CD4 T cells: cytokine secretion; format: cell-based; conditions: moDC treated with R848 + lipid; limiting anti-CD3; 2 days after T cell addition
Text: Human moDC coculture with memory CD4 T cells. Human monocytes were isolated from leukopheresis products using Miltenyi StraightFrom LeukoPak CD14 microbeads as directed by manufacturer. Custom PBMC isolation microbead kits from Miltenyi were used to separate PBMCs from red blood cells and granulocytes from the same blood products. After PBMC purification, Miltenyi human memory CD4+ T cell isolation kits were used to negatively select the CD45RO+ fraction. Cells were cryogenically stored until ready for use in experiments.
Human monocytes were differentiated into dendritic cells as previously described using recombinant human GM-CSF and IL-4 for 6 days. moDCs were plated in R10 media at 5E4 cells/well into 96-well U-bottom microplates for hyperactivations. […] T cell stimulating anti-CD3 antibody was added into the culture (with or without blocking anti-IL-1beta antibody) prior to T cell addition. Autologous frozen memory CD4 T cells were thawed, resuspended in R10 media and added at 2.5×10^5 cells/well (ratio 1:5, DC:T cell). After two days incubation, cell culture supernatant was collected and used for measuring cytokine secretion. Commercially available kits such as Biolegend LegendPlex kits were used as directed by manufacturer's protocol to quantify cytokines of interest.
Four donors were tested with each experimental condition tested in triplicate. […]

[4] = tested on: human monocyte-derived dendritic cells (moDCs); test: DAMP screen: viability of human moDCs (CellTiter-Glo)
Experimental: Danger-Associated Molecular Pattern (DAMP) Screen. After 6 days of differentiation into moDC, cells were collected and counted. Cells were plated at 100,000 cells/well in R10 media in 96-well flat bottom tissue culture-treated plates. LPS, serotype O55:B5 (Enzo Life Sciences) was added to a final concentration of 1 μg/mL in each well. […] Cells were incubated at 37° C., 5% CO2 for two days. Cell cultures were then used for endpoint analyses.
Endpoint Analyses. After culturing moDCs with PAMPs and DAMPs for two days, supernatant and cell samples were collected for analysis.
Quantification of Cell Viability. Cell viability was assessed by quantifying the presence of ATP as an indicator of metabolically active cells using the CellTiter-Glo Luminescent Cell Viability Assay (Promega). Metabolic activity was assessed following manufacturer's instructions. The CellTiter-Glo reagent was mixed with the cell pellets and remaining supernatant, and transferred to a white, opaque 96-well plate. Luminescence was measured on all wavelengths on a Spectramax iD3 plate reader (Molecular Devices) using an integration time of 500 ms. Percent viability was calculated relative to the control condition of moDCs treated with LPS.

[5] = tested on: human monocyte-derived dendritic cells (moDCs); test: Lipid titration: viability of human moDCs (CellTiter-Glo)
[6] = tested on: canine peripheral blood mononuclear cells (PBMCs); test: Viability of canine PBMCs (CellTiter-Glo); format: cell-based; conditions: lipid combined with R848, 2 days; relative to R848 alone
Experimental: (§2) Isolation of PBMCs from Whole Blood. PBMCs were isolated from whole blood using density gradient centrifugation with Ficoll-Paque PLUS (Cytivia). Whole blood was diluted 1:1 with PBS, layered on top of Ficoll-Paque PLUS and centrifuged at 1000×g for 30 minutes at room temperature. PBMCs were collected, washed twice in PBS, and incubated with Ack lysis buffer (Lonza) to remove any remaining red blood cells.
(§3) Cell Culture and Stimulation. […] Cells were plated at 1×10^5 (canine cells) or 1×10^6 (human cells) per well in 96-well flat bottom tissue culture plates. Lyophilized Vaccigrade R848 (Invivogen) was reconstituted and diluted according to manufacturer's recommendations and added to cells at a final concentration of 1 μg/mL.
(§4) Quantification of Cell Viability.

[7] = tested on: human PBMCs; test: Cytokine secretion (IL-1β, IFNγ, TNFα) by human PBMCs; format: cell-based; conditions: lipid 82.5 μM combined with R848 1 μg/mL, 2 days
Experimental: as §2, §3
Quantification of Cytokine Secretion. IL-1β secretion from human PBMCs was assessed using one of the following kits: ELISA MAX Deluxe Set Human IL-1β kit (Biolegend), Invitrogen Human IL-1β kit, or the Lumit™ Human IL-1β Immunoassay (Promega). IFNγ secretion from human PBMCs was assessed using the ELISA MAX Deluxe Set Human IFNγ (Biolegend) and TNFα secretion from human PBMCs was assessed using the Human TNFα Uncoated ELISA kit (Invitrogen). ELISAs were performed according to manufacturer's instructions with the following modifications: i) total sample+buffer volume for incubation was reduced from 100 μL to 50 μL; ii) the top standard was prepared at […], with two-fold dilutions to […]; and iii) sample incubation was completed overnight at 4 C on an orbital shaker. Lumit™ assays were performed according to manufacturer's instructions. IL-1β secretion from canine PBMCs was assessed using the Canine IL-1β/IL-1F2 DuoSet ELISA (R&D) according to manufacturer's instructions with the following modifications: i) total sample+buffer volume for incubation was reduced from 100 μL to 50 μL; ii) sample incubation was completed overnight at 4° C. on an orbital shaker. For all ELISAs, absorbance was measured at 450 nm, with a 570 nm correction, using a Spectramax M5e plate reader (Molecular Devices). For Lumit™ assays, luminescence was measured on all wavelengths using a Spectramax M5e plate reader (Molecular Devices) with an integration time of 500 ms. To determine cytokine concentrations in supernatants, sample concentrations were interpolated using a standard curve via 4PL analysis on GraphPad Prism 9 (GraphPad Software). The interpolated results of samples were then adjusted for any dilutions made to the supernatant.

[8] = tested on: human PBMCs; test: Viability of human PBMCs (CellTiter-Glo); format: cell-based; conditions: 2 days post-activation; lipids combined with R848
Experimental: as §2, §3, §4

[9] = tested on: non-human primate PBMCs; test: Cytokine secretion by non-human primate PBMCs (LegendPlex); format: cell-based, cynomolgus macaques
Experimental: Non-human primate PBMC hyperactivation. Whole blood from cynomolgus macaques was diluted with an equal volume of PBS. A solution of 90% Ficoll-Paque PLUS and 10% RPMI was made, and diluted whole blood was overlayed on top of the diluted Ficoll. Cells were centrifuged at 1000 rcf for 30 minutes at room temperature with no brakes. The buffy coat layer was collected and washed twice with PBS. If red blood cell contamination was present, cells were incubated in ACK lysis buffer for 2 minutes before being washed with PBS to remove lysed red blood cells.
Isolated PBMC were plated at 1×10^6 cells/well and cultured with or without hyperactivating stimuli. After 2 days incubation, cells were assessed for viability, and cell culture supernatant was used to measure cytokine output. Commercially available kits such as Biolegend LegendPlex kits were used as directed by manufacturer's protocol to quantify cytokines of interest.
PBMC were obtained from 13 cynomolgus macaques. Each activation condition was tested in triplicate, and the mean value of the triplicate is graphed for the animal sample. Repeated measures one-way ANOVA was used to test for statistical significance followed by Dunnett's multiple comparisons test.

[10] = 41.3 μM lipid + LPS 1 μg/mL, 2 days, Table 1-2
[11] = 82.5 μM lipid + LPS, selected lipids, Table 1-3 (repeats Table 1-1)
[12] = 10.3 μM lipid + LPS 1 μg/mL, 2 days, Table 1-5
[13] = 20.6 μM lipid + LPS, human moDCs, 4 donors, mean (SD in wrapped line below)
[14] = 41.3 μM lipid + LPS 1 μg/mL, 2 days, relative to LPS-treated moDCs, Table 1-2
[15] = 82.5 μM lipid + LPS 1 μg/mL, 2 days, relative to LPS-treated moDCs, Table 1-1
[16] = 10.3 μM lipid + LPS 1 μg/mL, 2 days, relative to LPS-treated moDCs, Table 1-5
[17] = 82.5 uM lipid + R848 vs R848 alone, 2 days

SMILES | IL-1β secretion [1, 10] | IL-1β secretion [1, 11] | IL-1β secretion [2, 12] | IL-1β secretion [2, 13] | Activity Units (AU) ± SD (lipid activity index) [2] | Relative Viability (%) ± SD [4, 14] | Relative Viability (%) ± SD [4, 15] | Relative Viability (%) ± SD [4, 11] | Relative Viability (%) ± SD [5, 16] | further results
CCCCCCCCCC(=O)OC[C@@H](O)COP(=O)([O-])OCC[N+](C)(C)C [10:0 LYSO PC] | 33.3 pg/mL | 37.8 pg/mL | 35.7 pg/mL | 35.2 pg/mL | 0.00 ± 0.00 AU | 97.8% | 95.2% | 95.2% | 100.5% | IFN-gamma (Th1 response) from cocultured memory CD4 T cells (in words) [3]: not detected; Relative Viability (%) ± SD ([5]; 20.6 μM lipid + LPS, human moDCs, 4 donors, relative to LPS alone): 100.4%
CCCCCCCCCCCCCCCC(=O)OC[C@H](COP(=O)([O-])OCC[N+](C)(C)C)OC(=O)CCCC(=O)O [PGPC, 1-palmitoyl-2-glutaryl-sn-glycero-3-phosphocholine, reference compound] | 132.9 pg/mL | 271.6 pg/mL | 52.8 pg/mL | 69.2 pg/mL | 3.46 ± 4.14 AU | 87.2% | 58.6% | 58.6% | 98.5% | relative cell viability (in words) [6]: somewhat toxic to canine PBMCs; IL-1β secretion (in words) [7]: did not induce substantially higher levels of IL-1β than R848 alone; human PBMC viability (in words) [8]: not observed to be toxic; cytokine fold changes relative to R848 alone (in words) ([9]; 41.3 uM lipid + R848): not as markedly increased; IL-1beta output (in words) ([9]; 82.5 uM lipid + R848 1 μg/mL vs R848 alone, 2 days): increased the IL-1beta output; IFN-beta secretion (in words) [9, 17]: increased; IFN-gamma secretion (in words) [9, 17]: significantly increased; IL-8 secretion (in words) [9, 17]: increased; IL-17a secretion (in words) [9, 17]: increased; IL-23 secretion (in words) [9, 17]: increased; moDC viability (in words) ([4]; human moDCs, lipid screens of Example 1): not observed to be toxic
